Reference: ChEMBL document CHEMBL5728748 (2021)

Test: TarO Biochemical Enzymatic Assay: The TarO biochemical enzymatic assay is a liquid chromatography-mass spectroscopy (LC-MS) based end point assay that measures C55-P-P-GlcNAc (LIPID III) production. The TarO biochemical enzymatic assay was performed in a 384-well microtiter plate (Labcyte) with a reaction volume of 20 μl. The reaction mix contained 0.1 μgs/μl of TarO membrane preparation derived from MRSA COL (lysostaphin/lysozyme treated, centrifuged at 40K rpm, and re-suspended in 50 mM Tris pH 7.5, 10 mM MgCl2), 1500 μM UDP-GlcNAc, x 75 μM C55-P substrates in 83 mM Tris pH 8.0, 6.7 mM MgCl2, 6 mM CHAPS, and 8.3% DMSO buffer. The enzyme reactions were quenched by extraction in 40 μl of 1-pentanol containing 0.04 μM […] C55-PP-GlcNAc, which was used as an internal standard. A 10 μl volume of the quenched reaction mixture (pH≈3) from each well was injected onto a reversed-phase column (C4, 5 m, 2.1×50 mm, Thermo Scientific Biobacis-4) and eluted using a NH4Ac/H2O/MeOH gradient (solvent A: 10 mM NH4Ac in water, pH 5.6; solvent B: NH4Ac (1 M)-Isopropanol (1:90, v/v, pH 5.6). The HPLC conditions were as follows: 15% solvent B for 15 seconds followed by a gradient to 90% solvent B in 90 seconds; then solvent B was kept at 95% for 10 seconds followed by a gradient to 8% solvent B in 0.1 minute. The column was then equilibrated at 15% B for 1 minute before the next injection. The flow rate was kept constant at 600 μl/minute. Mass spectrometric detection was carried out in the negative-ion mode using selected reaction monitoring (SRM). Typical mass spectrometric conditions were as follows: heated capillary temperature, 210° C.; spray voltage, 2500 V; desolvation gas (N2), 40 l/h; auxiliary gas (N2), 35 l/h. Selected ion current (SIC) chromatograms of C55-PP-GlcNAc and internal standard 15C C55-PP-GlcNAc were plotted and integrated using LCQuan incorporated in Xcalibur software (ThermoFinnigan). The linearity of C55-PP-GlcNAc concentration versus mass spectrometric signal (AC55-PP-GlcNAc/A15C-C55-PP-GlcNAc) was determined with purified C55-PP-GlcNAc. The IC50 values were calculated using the nonlinear regression analysis (sigmoidal dose response fit allowing for a variable slope) of percent inhibition data with minimum and maximum values set to 0 and 100 percent.

SMILES	IC50
O=C(NCc1cncc2ccccc12)N1C(=O)O[C@H](c2cc(F)cc(C(F)(F)F)c2)[C@@H]1CCO	4770 nM
C[C@H]1[C@@H](c2cc(N3CCC(F)(F)C3)cc(C(F)(F)F)c2)OC(=O)N1C(=O)NCc1cccc2cncnc12	260 nM
CC[C@H]1[C@@H](c2cc(C(F)(F)F)cc(C(F)(F)F)c2)OC(=O)N1C(=O)CCc1cncc2ccccc12	60 nM
Cc1ccc2c(n1)N(CCC(=O)N1C(=O)O[C@H](c3cc(F)cc(C(F)(F)F)c3)[C@@H]1C)CCO2	240 nM
O=C(CCc1cncc2ccccc12)N1C[C@H](c2cc(C(F)(F)F)cc(C(F)(F)F)c2)OC1=O	540 nM
COc1cccc([C@H]2OC(=O)N(C(=O)CCc3cccc4ccccc34)[C@H]2C)n1	3000 nM
C[C@H]1[C@@H](c2cccc(Br)n2)OC(=O)N1C(=O)CCc1cccc2ccccc12	480 nM
COc1cc([C@H]2OC(=O)N(C(=O)NCc3cncc4cccnc34)C[C@H]2C)cc(C(F)(F)F)c1	1260 nM
C[C@H]1[C@@H](c2cc(Br)cc(C(F)(F)F)c2)OC(=O)N1C(=O)CCc1cncc2ccccc12	1490 nM
COc1cccc([C@H]2OC(=O)N(C(=O)CCc3cncc4ccccc34)[C@H]2C)c1	1200 nM
C[C@@H]1NN(C(=O)NCc2cncc3ccccc23)C(=O)O[C@@H]1c1cc(F)cc(C(F)(F)F)c1	950 nM
O=C(CCc1cncc2ccccc12)N1CC(c2cccc(F)c2F)OC1=O (centres undefined)	1200 nM
C[C@H]1[C@@H](c2cc(C(F)(F)F)cc(C(F)(F)F)c2)OC(=O)N1C(=O)COc1cccc2ccccc12	40 nM
COc1cc(C(F)(F)F)nc([C@@H]2OC(=O)N(C(=O)NCc3cncc4ccccc34)[C@H]2C)n1	2170 nM
Cc1cccc(OCC(=O)N2C(=O)O[C@H](c3cccc(C(F)(F)F)c3)[C@@H]2C)c1C	680 nM
C[C@H]1[C@@H](c2cc(C(F)(F)F)ccn2)OC(=O)N1C(=O)CCc1cncc2ccccc12	6980 nM
C[C@H]1[C@@H](c2ccc(F)c(F)c2)OC(=O)N1C(=O)CCc1cncc2ccccc12	4640 nM
C[C@H]1[C@@H](c2cc(N(C)C)cc(C(F)(F)F)c2)OC(=O)N1C(=O)NCc1cncc2ccccc12	30 nM
C[C@H]1CN(C(=O)NCc2cncc3ccccc23)C(=O)O[C@@H]1c1cc(C(F)(F)F)cc(C(F)(F)F)c1 (single isomer, unassigned)	30 nM
